# How the values were obtained:
# [1] = test system: Gardner lymphosarcoma (GLS); assay: Percent inhibition of transplanted Gardner lymphosarcoma (GLS) in mice; format: in vivo; conditions: for inhibitory activity orally / oral activity: oral; for inhibitory activity orally: 6-7 mg./kg. (3"-methyl) and 3-6 mg./kg. (3"-(β-chloroethyl)); for oral activity: 2 (VLB) and 2-4.5 (vincristine) mg./kg.
# Experimental: (§1) The following table--Table 1--gives the results of several experiments in which mice bearing transplanted tumors were treated successfully with a compound of this invention. In the table, column 1 gives the name of the compound; column 2, the transplanted tumor; column 3, the dose level or dose level range and the number of days the dosage was administered; column 4, the route of administration, and column 5, the percent inhibition of tumor growth or percent prolongation of survival time, e.g., B16 and P388. (ROS is an abbreviation for Ridgeway osteogenic sarcoma; GLS for Gardner lymphosarcoma; P1534(J) and P388 are leukemias; CA755 is an adenocarcinoma; and B16 is a melamoma).
# [2] = test system: transplanted tumors; conditions: C-3 amides; cited from earlier work
# [3] = test system: CA755; assay: Percent inhibition of transplanted CA755 adenocarcinoma in mice; format: in vivo; conditions: for inhibitory activity orally / oral activity: oral; for inhibitory activity orally: 6-7 mg./kg. (3"-methyl) and 3-6 mg./kg. (3"-(β-chloroethyl)); for oral activity: 2 (VLB) and 2-4.5 (vincristine) mg./kg.
# Experimental: as §1
# [4] = test system: P1534(J); assay: Percent inhibition, mice bearing transplanted P1534(J) leukemia; format: in vivo
# Experimental: as §1
# [5] = test system: Ridgeway osteogenic sarcoma (ROS); assay: Percent inhibition of transplanted Ridgeway osteogenic sarcoma (ROS) in mice; format: in vivo; conditions: for inhibitory activity orally / oral activity: oral; for inhibitory activity orally: 6-7 mg./kg. (3"-methyl) and 3-6 mg./kg. (3"-(β-chloroethyl)); for oral activity: 2 (VLB) and 2-4.5 (vincristine) mg./kg.
# Experimental: as §1
# [6] = test system: B16; assay: Percent prolongation of survival time, mice bearing transplanted B16 melanoma; format: in vivo
# Experimental: as §1
# [7] = test system: transplanted tumors; assay: Activity against transplanted tumors in mice (general statements); format: in vivo; conditions: for activity by the oral route: same tumors in experimental animals; for dose level showing comparable tumor inhibition or prolongation of life: parenteral, intraperitoneal route
# Experimental: as §1
# [8] = Toxicity on oral administration in tumor-bearing animals; format: in vivo, experimental animals; conditions: above 2 (VLB) and 2-4.5 (vincristine) mg./kg.
# [9] = test system: leukemias; conditions: humans; cited from earlier work
# [10] = humans; compared with vincristine; cited from earlier work
smiles,measurement,setting,value
"CC[C@]1(O)C[C@@H]2CN(CCc3c([nH]c4ccccc34)[C@@](C(=O)OC)(c3cc4c(cc3OC)N(C)[C@H]3[C@]5(OC(=O)N(C)C5=O)[C@H](OC(=O)NC)[C@]5(CC)C=CCN6CC[C@]43[C@@H]65)C2)C1 [4-desacetyl VLB 3""-methyl-3-spiro-5""-oxazolidine-2"",4""-dione-4-(N-methyl)carbamate]",Percent Inhibition,"[1]; 0.1-2.5 mg./kg. × 7-9 days, IP",40-100%
"CC[C@]1(O)C[C@@H]2CN(CCc3c([nH]c4ccccc34)[C@@](C(=O)OC)(c3cc4c(cc3OC)N(C)[C@H]3[C@]5(OC(=O)N(C)C5=O)[C@H](O)[C@]5(CC)C=CCN6CC[C@]43[C@@H]65)C2)C1 [4-desacetyl VLB 3""-methyl-3-spiro-5""-oxazolidone-2"",4""-dione]",Percent Inhibition,"[1]; 2.5 mg./kg. × 7 days, IP",27%
CC[C@]1(O)C[C@@H]2CN(CCc3c([nH]c4ccccc34)[C@@](C(=O)OC)(c3cc4c(cc3OC)N(C)[C@H]3[C@@](O)(C(=O)NCCS)[C@H](O)[C@]5(CC)C=CCN6CC[C@]43[C@@H]65)C2)C1 [C-3 N-(β-mercaptoethyl)carboxamide of 4-desacetyl VLB],anti-tumor activity in mice,[2],highly effective anti-tumor agent in mice
"CC[C@]1(O)C[C@@H]2CN(CCc3c([nH]c4ccccc34)[C@@](C(=O)OC)(c3cc4c(cc3OC)N(C)[C@H]3[C@]5(OC(=O)N(CCCl)C5=O)[C@H](OC(C)=O)[C@]5(CC)C=CCN6CC[C@]43[C@@H]65)C2)C1 [VLB 3""-(β-chloroethyl)-3-spiro-5""-oxazolidine-2"",4""-dione]",Percent Inhibition,"[1]; 0.65 mg./kg. × 10 days, IP",47%
same,Percent Inhibition,"[1]; 0.5-0.6 mg./kg. × 9-10 days, IP",50-74%
same,Percent Inhibition,"[1]; 3-4 mg./kg. × 9 days, PO",92-100%
same,inhibitory activity orally,[1],100%
same,Percent Inhibition,"[3]; 0.75-1.0 mg./kg. × 10 days, IP",53%
same,Percent Inhibition,"[3]; 3-5 mg./kg. × 9-10 days, PO",59-92%
same,inhibitory activity orally,[3],100%
same,Percent Inhibition or Prolongation of Survival Time,"[4]; 3.5 mg./kg. × 8 days, PO",100%
same,Percent Inhibition or Prolongation of Survival Time,"[4]; 0.4-0.6 mg./kg. × 10 days, IP",61-86%
same,inhibitory activity orally,[5],100%
same,Percent Prolongation of Survival Time,"[6]; 0.4-0.6 mg./kg. × 10 days, IP",25-178%
same,indefinite survivors (survived for 60 days till end of trial),"[6]; 0.4-0.6 mg./kg. × 10 days, IP",5
"C=CCN1C(=O)O[C@]2(C1=O)[C@H](OC(C)=O)[C@]1(CC)C=CCN3CC[C@@]4(c5cc([C@@]6(C(=O)OC)C[C@H]7CN(CCc8c6[nH]c6ccccc86)C[C@](O)(CC)C7)c(OC)cc5N(C)[C@@H]24)[C@@H]31 [VLB 3""-allyl-3-spiro-5""-oxazolidine-2"",4""-dione]",Percent Inhibition,"[1]; 2.5 mg./kg. × 7 days, IP",35%
"CC[C@]1(O)C[C@@H]2CN(CCc3c([nH]c4ccccc34)[C@@](C(=O)OC)(c3cc4c(cc3OC)N(C)[C@H]3[C@]5(OC(=O)N(C)C5=O)[C@H](OC(C)=O)[C@]5(CC)C=CCN6CC[C@]43[C@@H]65)C2)C1 [VLB 3""-methyl-3-spiro-5""-oxazolidine-2"",4""-dione]",Percent Inhibition,"[1]; 0.6 mg./kg. × 7 days, IP",100%
same,Percent Inhibition,"[1]; 1.25 mg./kg. × 9 days, IP",100%
same,Percent Inhibition,"[1]; 3-4 mg./kg. × 10 days, PO",100%
same,Percent Inhibition,"[1]; 3-5 mg./kg. × 10 days, PO",37-56%
same,inhibitory activity orally,[1],100%
same,Percent Inhibition,"[3]; 0.5-1.0 mg./kg. × 10 days, IP",45-100%
same,inhibitory activity orally,[3],100%
same,Percent Inhibition or Prolongation of Survival Time,"[4]; 3-4 mg./kg. × 8 days, PO",100%
same,Percent Inhibition or Prolongation of Survival Time,"[4]; .5-.6 mg./kg. × 10 days, IP",100%
same,Percent Inhibition,"[5]; 5-7 mg./kg. × 10 days, PO",38-59%
same,inhibitory activity orally,[5],100%
same,Percent Prolongation of Survival Time,"[6]; 4.5 mg./kg. × 10 days, IP (so in the source)",49-91%
same,indefinite survivors (survived for 60 days till end of trial),"[6]; 0.5-0.6 mg./kg. × 10 days, IP",3
"CC[C@]1(O)C[C@@H]2CN(CCc3c([nH]c4ccccc34)[C@@](C(=O)OC)(c3cc4c(cc3OC)N(C)[C@H]3[C@@](O)(C(=O)OC)[C@H](OC(C)=O)[C@]5(CC)C=CCN6CC[C@]43[C@@H]65)C2)C1 [VLB, vincaleukoblastine, reference compound]",oral activity,[1],"only marginally active, if at all"
same,activity by the oral route,[7],do not show this degree of oral activity
same,dose level showing comparable tumor inhibition or prolongation of life,[7],0.4 to 0.45 mg/kg
same,oral activity,[3],"only marginally active, if at all"
same,oral activity,[5],"only marginally active, if at all"
same,toxicity at higher levels,[8],usually are toxic at higher levels
"CC[C@]1(O)C[C@@H]2CN(CCc3c([nH]c4ccccc34)[C@@](C(=O)OC)(c3cc4c(cc3OC)N(C=O)[C@H]3[C@]5(OC(=O)N(C)C5=O)[C@H](OC(C)=O)[C@]5(CC)C=CCN6CC[C@]43[C@@H]65)C2)C1 [Vincristine 3""-methyl-3-spiro-5""-oxazolidine-2"",4""-dione]",Percent Inhibition,"[1]; 1.0 mg./kg. × 7 days, IP",61%
"CC[C@]1(O)C[C@H]2CN(CCc3c([nH]c4ccccc34)[C@@](C(=O)OC)(c3cc4c(cc3OC)N(C=O)[C@H]3[C@@](O)(C(=O)OC)[C@H](OC(C)=O)[C@]5(CC)C=CCN6CC[C@]43[C@@H]65)C2)C1 [vincristine, leurocristine]",oral activity,[1],"only marginally active, if at all"
same,activity by the oral route,[7],do not show this degree of oral activity
same,dose level showing comparable tumor inhibition or prolongation of life,[7],0.2 to 0.25 mg/kg
same,oral activity,[3],"only marginally active, if at all"
same,activity in the treatment of leukemias,[9],most active and useful agent in the treatment of leukemias
same,oral activity,[5],"only marginally active, if at all"
same,toxicity at higher levels,[8],usually are toxic at higher levels
"CC[C@]1(O)C[C@@H]2CN(CCc3c([nH]c4ccccc34)[C@@](C(=O)OC)(c3cc4c(cc3OC)N(C)[C@H]3[C@@](O)(C(N)=O)[C@H](O)[C@]5(CC)C=CCN6CC[C@]43[C@@H]65)C2)C1 [vindesine, 4-desacetyl VLB C-3 carboxamide]",neurotoxicity,[10],less neurotoxicity than does vincristine
same,activity in the treatment of leukemias,[9],active in certain leukemias
